From patent US20170050980A1, “OXADIAZINE COMPOUNDS AND METHODS OF USE THEREOF” (FORUM Pharmaceuticals Inc., priority 2015, published 2017)

Tested on: Aβ42
Test: In vitro cell screening assay; quantification of Aβ (1-42) peptide by sandwich ELISA
Assay type: cell-based
Details: Human neuroglioma H4 cells stably expressing human wild type APP751; compounds 0.003-10 μM, incubated overnight (16-18 h); Aβ42 in supernatant by sandwich ELISA; normalized to DMSO and DAPT; read-out: Aβ42 H4 Prot Fre IC50
How it was run: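 Stable H4 neuroglioma line expressing human wild-type APP751; compounds 0.003-10 μM (0.33% DMSO final) added in Pro293 medium 6 h after plating, incubated overnight (16-18 h) at 37 °C. Secreted Aβ42 measured in supernatant by C-terminal-capture sandwich ELISA with 4G8-HRP detection; IC50 by sigmoidal fit, normalized to DMSO and DAPT.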

| Structure (SMILES) | IC50 |
| --- | --- |
| COc1nc(C2=NOC(C)C(c3cn(C)c4ncc(Cl)cc34)N2)ccc1-n1cnc(C)c1 (single isomer, unassigned; (-)) [Example 54A, (−)-5-(5-chloro-1-methyl-1H-pyrrolo [2,3-b]pyridin-3-yl)-3-(6-methoxy-5-(4-methyl-1H-imidazol-1-yl)pyridin-2-yl)-6-methyl-5,6-dihydro-4H-1,2,4-oxadiazine] | 0.19 µM |
| COc1nc(C2=NOC(C)C(c3cn(C)c4ncc(Cl)cc34)N2)ccc1-n1cnc(C)c1 (single isomer, unassigned; (-)) [Example 54C, (−)-5-(5-chloro-1-methyl-1H-pyrrolo [2,3-b]pyridin-3-yl)-3-(6-methoxy-5-(4-methyl-1H-imidazol-1-yl)pyridin-2-yl)-6-methyl-5,6-dihydro-4H-1,2,4-oxadiazine] | 0.464 µM |
| COc1nc(C2=NOC(C)C(c3ccc(Cl)c(C(F)F)c3)N2)ccc1-n1cnc(C)c1 (single isomer, unassigned; (-)) [Example 55B, (−)-5-(4-chloro-3-(difluoromethyl)phenyl)-3-(6-methoxy-5-(4-methyl-1H-imidazol-1-yl)pyridin-2-yl)-6-methyl-5,6-dihydro-4H-1,2,4-oxadiazine] | 0.352 µM |
| COc1nc(C2=NOC(C)C(c3cn(C)c4ncc(C5CC5)cc34)N2)ccc1-n1cnc(C)c1 (single isomer, unassigned; (-)) [Example 56B, (−)-5-(5-cyclopropyl-1-methyl-1H-pyrrolo [2,3-b]pyridin-3-yl)-3-(6-methoxy-5-(4-methyl-1H-imidazol-1-yl)pyridin-2-yl)-6-methyl-5,6-dihydro-4H-1,2,4-oxadiazine] | 0.013 µM |
| COc1nc(C2=NOC(C)C(c3cn(C)c4ncc(C5CC5)cc34)N2)ccc1-n1cnc(C)c1 (single isomer, unassigned; (-)) [Example 56C, (−)-5-(5-cyclopropyl-1-methyl-1H-pyrrolo [2,3-b]pyridin-3-yl)-3-(6-methoxy-5-(4-methyl-1H-imidazol-1-yl)pyridin-2-yl)-6-methyl-5,6-dihydro-4H-1,2,4-oxadiazine] | 0.221 µM |
| COc1nc(C2=NOC(C3CC3)C(c3cc(F)cc(F)c3)N2)ccc1-n1cnc(C)c1 (single isomer, unassigned; (-)) [Example 59B, (−)-6-cyclopropyl-5-(3,5-difluorophenyl)-3-(6-methoxy-5-(4-methyl-1H-imidazol-1-yl)pyridin-2-yl)-5,6-dihydro-4H-1,2,4-oxadiazine] | 0.854 µM |
| COc1nc(C2=NOC(C3CC3)C(c3cn(C)c4ncc(F)c(F)c34)N2)ccc1-n1cnc(C)c1 (single isomer, unassigned; (-)) [Example 60B, (−)-6-cyclopropyl-5-(4,5-difluoro-1-methyl-1H-pyrrolo [2,3-b]pyridin-3-yl)-3-(6-methoxy-5-(4-methyl-1H-imidazol-1-yl)pyridin-2-yl)-5,6-dihydro-4H-1,2,4-oxadiazine] | 0.0427 µM |
| COc1nc(C2=NOC(C3CC3)C(c3cc4ccccc4o3)N2)ccc1-n1cnc(C)c1 (single isomer, unassigned; (-)) [Example 61B, (−)-5-(benzofuran-2-yl)-6-cyclopropyl-3-(6-methoxy-5-(4-methyl-1H-imidazol-1-yl)pyridin-2-yl)-5,6-dihydro-4H-1,2,4-oxadiazine] | 0.598 µM |
| COc1nc(C2=NOC(C)C(c3cn(C)c4ncc(Cl)c(F)c34)N2)ccc1-n1cnc(C)c1 (single isomer, unassigned; (-)) [Example 62B, (−)-5-(5-chloro-4-fluoro-1-methyl-1H-pyrrolo [2,3-b]pyridin-3-yl)-3-(6-methoxy-5-(4-methyl-1H-imidazol-1-yl)pyridin-2-yl)-6-methyl-5,6-dihydro-4H-1,2,4-oxadiazine] | 0.484 µM |
| COc1nc(C2=NOC(C3CC3)C(c3cn(C)c4nccc(F)c34)N2)ccc1-n1cnc(C)c1 (single isomer, unassigned; (-)) [Example 63B, (−)-6-cyclopropyl-5-(4-fluoro-1-methyl-1H-pyrrolo [2,3-b]pyridin-3-yl)-3-(6-methoxy-5-(4-methyl-1H-imidazol-1-yl)pyridin-2-yl)-5,6-dihydro-4H-1,2,4-oxadiazine] | 0.105 µM |
| COc1nc(C2=NOC(C)C(c3ccc(Cl)c(F)c3)N2)ccc1-n1cnc(C)c1 (stereo not drawn) [40-IA or 40-IIA, (−)-(cis)-5-(4-chloro-3-fluorophenyl)-3-(6-methoxy-5-(4-methyl-1H-imidazol-1-yl)pyridin-2-yl)-6-methyl-5,6-dihydro-4H-1,2,4-oxadiazine] | 1.84 µM |
| COc1nc(C2=NOC(C)C(c3ccc(Cl)c(F)c3)N2)ccc1-n1cnc(C)c1 (stereo not drawn) [40-IB or 40-IIB, (+)-(cis)-5-(4-chloro-3-fluorophenyl)-3-(6-methoxy-5-(4-methyl-1H-imidazol-1-yl)pyridin-2-yl)-6-methyl-5,6-dihydro-4H-1,2,4-oxadiazine] | 0.0075 µM |
| COc1nc(C2=NOC(C3CC3)C(c3cn(C)c4ncc(Cl)cc34)N2)ccc1-n1cnc(C)c1 (stereo not drawn) [57A or 58A, (+)-(cis)-5-(5-chloro-1-methyl-1H-pyrrolo[2,3-b]pyridin-3-yl)-6-cyclopropyl-3-(6-methoxy-5-(4-methyl-1H-imidazol-1-yl)pyridin-2-yl)-5,6-dihydro-4H-1,2,4-oxadiazine] | 1.24 µM |
| COc1nc(C2=NOC(C3CC3)C(c3cn(C)c4ncc(Cl)cc34)N2)ccc1-n1cnc(C)c1 (stereo not drawn) [57B or 58B, (−)-(cis)-5-(5-chloro-1-methyl-1H-pyrrolo[2,3-b]pyridin-3-yl)-6-cyclopropyl-3-(6-methoxy-5-(4-methyl-1H-imidazol-1-yl)pyridin-2-yl)-5,6-dihydro-4H-1,2,4-oxadiazine] | 0.0067 µM |
| COc1nc(C2=NO[C@@H](C)[C@@H](c3ccc(Cl)cc3)N2)ccc1-n1cnc(C)c1 [Example 18A, (−)-(5R,6S)-5-(4-chlorophenyl)-3-[6-methoxy-5-(4-methyl-1H-imidazol-1-yl)pyridin-2-yl]-6-methyl-5,6-dihydro-4H-1,2,4-oxadiazine] | 2.22 µM |
| COc1nc(C2=NO[C@H](C)[C@H](c3ccc(Cl)cc3)N2)ccc1-n1cnc(C)c1 [Example 18B, (+)-(5S,6R)-5-(4-chlorophenyl)-3-[6-methoxy-5-(4-methyl-1H-imidazol-1-yl)pyridin-2-yl]-6-methyl-5,6-dihydro-4H-1,2,4-oxadiazine] | 0.019 µM |
| COc1nc(C2=NOC(C)C(c3ccc(Cl)c(Cl)c3)N2)ccc1-n1cnc(C)c1 (stereo not drawn) [Example 19A, (−)-cis-5-(3,4-dichlorophenyl)-3-[6-methoxy-5-(4-methyl-1H-imidazol-1-yl)pyridin-2-yl]-6-methyl-5,6-dihydro-4H-1,2,4-oxadiazine] | 0.91 µM |
| COc1nc(C2=NOC(C)C(c3ccc(Cl)c(Cl)c3)N2)ccc1-n1cnc(C)c1 (stereo not drawn) [Example 19B, (+)-cis-5-(3,4-dichlorophenyl)-3-[6-methoxy-5-(4-methyl-1H-imidazol-1-yl)pyridin-2-yl]-6-methyl-5,6-dihydro-4H-1,2,4-oxadiazine] | 0.006 µM |
| COc1nc(C2=NOC(C3CC3)C(c3ccc(Cl)cc3)N2)ccc1-n1cnc(C)c1 (stereo not drawn) [Example 20A, (−)-cis-5-(4-chlorophenyl)-6-cyclopropyl-3-[6-methoxy-5-(4-methyl-1H-imidazol-1-yl)pyridin-2-yl]-5,6-dihydro-4H-1,2,4-oxadiazine] | 1.78 µM |
| COc1nc(C2=NOC(C3CC3)C(c3ccc(Cl)cc3)N2)ccc1-n1cnc(C)c1 (stereo not drawn) [Example 20B, (+)-cis-5-(4-chlorophenyl)-6-cyclopropyl-3-[6-methoxy-5-(4-methyl-1H-imidazol-1-yl)pyridin-2-yl]-5,6-dihydro-4H-1,2,4-oxadiazine] | 0.009 µM |
| COc1nc(C2=NOC(C)C(c3ccc(Cl)cc3)N2)ccc1-n1cnc(C)c1 (stereo not drawn) [Example 24A, (−)-trans-5-(4-chlorophenyl)-3-[6-methoxy-5-(4-methyl-1H-imidazol-1-yl)pyridin-2-yl]-6-methyl-5,6-dihydro-4H-1,2,4-oxadiazine] | 1.2 µM |
| COc1nc(C2=NOC(C)C(c3ccc(Cl)cc3)N2)ccc1-n1cnc(C)c1 (stereo not drawn) [Example 24B, (+)-trans-5-(4-chlorophenyl)-3-[6-methoxy-5-(4-methyl-1H-imidazol-1-yl)pyridin-2-yl]-6-methyl-5,6-dihydro-4H-1,2,4-oxadiazine] | 0.015 µM |
| COc1nc(C2=NOC(C)C(c3nn(C)c4ccc(Cl)cc34)N2)ccc1-n1cnc(C)c1 (stereo not drawn) [Example 69A, (+)-(cis)-5-(5-chloro-1-methyl-1H-indazol-3-yl)-3-(6-methoxy-5-(4-methyl-1H-imidazol-1-yl)pyridin-2-yl)-6-methyl-5,6-dihydro-4H-1,2,4-oxadiazine] | 0.0059 µM |
| COc1nc(C2=NOC(C)C(c3nn(C)c4ccc(Cl)cc34)N2)ccc1-n1cnc(C)c1 (stereo not drawn) [Example 69B, (−)-(cis)-5-(5-chloro-1-methyl-1H-indazol-3-yl)-3-(6-methoxy-5-(4-methyl-1H-imidazol-1-yl)pyridin-2-yl)-6-methyl-5,6-dihydro-4H-1,2,4-oxadiazine] | 0.706 µM |
| COc1nc(C2=NO[C@H](c3ccc(Cl)cc3)[C@H](C)N2)ccc1-n1cnc(C)c1 [Example 71A, (5S,6R)-6-(4-chlorophenyl)-3-(6-methoxy-5-(4-methyl-1H-imidazol-1-yl)pyridin-2-yl)-5-methyl-5,6-dihydro-4H-1,2,4-oxadiazine] | 0.0127 µM |
